Results: US20130252832A1, “KRAS Variant and Tumor Biology” (Yale University, priority 2012, published 2013)

What was measured:
[1] = tested on: KRAS-variant 3′UTR reporter; experiment: Luciferase 3'UTR reporter expression following irinotecan exposure; type: cell-based
Text: (§1) The disclosure provides a method of predicting the response of a cancer cell to the combination of a chemotherapy and monoclonal antibody therapy, including detecting a mutation in let-7 complementary site LCS6 of human KRAS in a patient sample, wherein the mutation is a SNP comprising a uracil (U) or thymine (T) to guanine (G) transition at position 4 of LCS6, and wherein the presence of the mutation indicates a resistance to the combination. In certain embodiments of this method, the cancer cell is a colorectal cancer (CRC) cell. The cancer cell may be evaluated in vitro or ex vivo. […] The chemotherapy may be a cytotoxic agent. A non-limiting example of the cytotoxic agent is irinotecan.
(§2) FIG. 24B is a graph depicting the fold repression (expressed as KRAS variant/KRAS wild type) as a function of irinotecan concentration, when cancer cells are treated with irinotecan.

wild-type 3′UTR reporter = experiment: as above; type: cell-based
Text: as §1, §2

CCc1c2c(nc3ccc(OC(=O)N4CCC(N5CCCCC5)CC4)cc13)-c1cc3c(c(=O)n1C2)COC(=O)[C@]3(O)CC [irinotecan]
Reporter expression following irinotecan exposure [1]: statistically-significant increase | Reporter expression following irinotecan exposure (wild-type 3′UTR reporter): no change
